Laboratory results published in patent US10617656B2, “Methods of increasing the cytotoxicity of chemotherapeutic agents with multisubstrate inhibitors of histone, protein-Lys, polyamine acetylation, and polyamine metabolism” (Vanderbilt University, priority 2010, dated 2020).

Experiments:
MCF7 breast cancer cells = conditions: 72 hr assay; DFMO 100 μM, 5FU 2 μM, doxorubicin 100 nM
Experimental: Viability was measured 3 days after the start of treatment and is expressed as a percentage of control (untreated) cell viability.
Each point is average of triplicates. […]
The present inventors carried out 96-well viability assays as we have previously described (Saadatmandi et al, Cancer Gene Therapy (2002) 9:830-9), in which MCF7 breast cancer cells were plated at 3000 cells per well. After overnight attachment, triplicate wells were treated with increasing doses of inhibitor 1a. Control wells were left untreated. After 3 days, cell viability was measured by the MTS assay, which measures the bioconversion of an uncolored substrate to a colored formazan derivative, and is proportional to cell number.

DLD-1 colon cancer = experiment: Nude mouse subcutaneous DLD-1 tumor model; type: in vivo; conditions: DFMO only, intratumoral 2 mg/kg
Experimental: Tumors were initiated By subcutaneous implantation of […] DLD-1 colon cancer cells. […] Tumors were measured and volumes calculated as in FIG. 14.
Tumors were initiated by injecting 10^6 DLD-1 cells (from ATCC) per mouse (female nude mouse, 4-5 weeks, Harlan Labs) subcutaneously in the flank. (A) When the average tumor size reached 26 mm^3, animals were randomized into 2 groups (3 per group). One group was left untreated and served as the control (-●-). […] Tumors were measured bidirectionally at 2-3 day intervals and tumor volumes were calculated (v=½ L×w^2). A paired t-test was used to evaluate the significance of the differences between the two groups of animals. […] (B) Tumors were initiated as in part (A). When tumors reached an average size of about 30 mm^3, animals were randomized into three groups of 2 animals each. The control group (-●-) received no treatment. The DFMO group (-▪-) received intratumoral injections of DFMO (2 mg/kg) on days 1, 7, 9 (5 PM), and 2, 8, 10 (9 AM, 5 PM). […] Tumors were measured and volumes calculated as in part (A). A paired t-test was used to evaluate the significance of the difference between the curves.

[1] = test system: MDA MB-435 breast cancer cells; experiment: 72 hr viability assay, MDA MB-435; type: cell-based; conditions: 72 hr assay; DFMO 100 μM, 5FU 2 μM, doxorubicin 100 nM
H358 lung cancer cells [2] = experiment: [3H]-thymidine incorporation (DNA synthesis) assay in H358 cells; type: cell-based
Experimental: (§1) (A) Structures of 1a, and the acetylated side chain of a lysine residue within the polypeptide chain of a protein targeted by the acetylating enzyme (R1 and R2 are the main chain elements on both sides of the lysyl residue). (B) [^3H]-thymidine incorporation into DNA of H358 cells pulsed for 6 hrs at three different time points after the addition of increasing concentrations of 1a, i.e., at 6-12 hrs (12 hr curve), at 18-24 hours (24 hr curve), or at 42-48 hrs (48 hr curve). Incorporation is represented as a percentage relative to control (untreated) cells. (C) Cell cycle analysis of propidium iodide-stained cells harvested at various times after addition of 50 μM 1a. % of cells in G1, S, and G2 represents the average of two independent profiles. (D) Western analysis of histone H3 lysine 9 acetylation, histone H3 lysine 56 acetylation, histone H3 lysine 9 methylation, and total histone H3, before “c” or at the indicated times after addition of 50 μM 1a. Each lane represents 60 μg cellular protein.
(§2) Control cells were left untreated. […] Control cells were left untreated.
Cells were either labeled immediately before treatment (starting DNA synthesis rate), or subjected to the indicated treatments and then pulsed on successive days until day 4. DNA synthesis is represented as the percent of starting DNA synthesis rate. Viability was determined for each treatment condition 24 hours post-start of treatment by the trypan blue exclusion assay, with percentages of viable cells indicated to the right of the graph.
H358 cells (2,000/well) in 96-well plates were treated with 1, 10 or 50 μM of spd-1a, spd-2a, spd-3a, spm3, or spm2 for 12 hours. Triplicate wells of cells were pulsed 6 hours with 0.5 μCi [^3H]-thymidine (NEN, Boston Mass.) post-start of drug treatment, and harvested onto filter paper using a Brandel Harvester and subjected to scintillation counting. Untreated cells were pulsed from 0-6 hrs to establish the initial rate of incorporation.
Cells were plated in 96-well plates (2000 cells per well to insure conditions for exponential growth for untreated cells over the time course of the experiment) and exposed to the following treatments: 1a (50 μM); camptothecin (Sigma, St Louis, Mo. 5 nM, 18 hours); cisplatin (Platinol, obtained through local pharmacies, 2 μM, 1 hour 15 minutes), 5-fluorouracil (5FU, Adrucil™, obtained through local pharmacies, 2 μM, 1 hour 15 minutes), Taxotere (provided by the late Dr. Pierre Potier, 5 nM, 18 hours). UVC treatment (40 J/m^2) using a Stratalinker™, Stratagene, La Jolla, Calif.) was carried using medium lacking phenol red. At 0-6 hr, 18-24 hr (day 1), 42-48 hr […], 66-72 hr (day 3), and 90-96 hr (day 4) post-start of treatment, triplicate wells were incubated with 0.5 μCi [^3H]-thymidine (NEN, Boston Mass.), harvested onto filter paper, and subjected to scintillation counting. Trypan blue exclusion assays for cell membrane integrity were carried out as known in the art.
The present inventors used 96-well viability assays as described in Saadatmandi et al (Cancer Gene Therapy (2002) 9:[…]) to examine the effect of 1a on DNA synthesis in H358 cells, as well as the combined effects of 1a and chemotherapeutic agents. H358 cells were plated in 96-well plates at 3000 cells per well. […]

[3] = test system: histone H3 lysine 9 acetylation in H358 cells; experiment: Western analysis of histone H3 acetylation/methylation in H358 cells; type: cell-based; conditions: 50 μM, 12 hours
Experimental: as §1
Each lane represents 175 μg cell lysate protein.
One 6 cm culture dish of H358 cells per treatment was used. Cells were treated with 50 μM spm-2, spm-3, or spd-3a for 12 hours. Histones were extracted from cells in 0.2M H2SO4 (as described in Furuta, T., et al (2003) J. Biol. Chem. 278: 20303-20312), followed by SDS-PAGE and Western blotting. Blots were probed with anti-acetyl histone H3-lysine 9 (Upstate Biotechnology, Inc.)
Cells were lysed by adding 1 mL of 0.2 M H2SO4. […]
One 10-cm plate of H358 lung cancer cells (about 2×10^6 cells), grown in DMEM+10% Fetal bovine serum as described in reference, were treated for 24 hours with 50 μM 1a inhibitor. […] Treated cells and untreated (control) cells were harvested by lysing in buffer containing 10 mM Hepes pH 7.5, 100 mM NaCl, 300 mM sucrose, 3 mM MgCl2, 1 mM EDTA, 1 mM DTT, 0.5% Triton X-100, 1 mM PMSF, protease inhibitor pellet (Roche) and analyzed on 10% SDS-PAGE gels, followed by Western immunoblot analysis of total histone H3, methylated histone H3 (methylated on lysine 9), and acetylated histone H3 (acetylated on lysine 9). […]

H358 lung cancer cells [4] = type: cell-based; conditions: CPT 5 nM 18 hours + 3a
Experimental: as §2
Cells were given fresh inhibitor on the first, second, and third days of treatment and viability was measured on the 4th day (i.e. 3 days post start of treatment). […]
(A) Structure of Spd-3a. (B) Western analysis of histone H3K9-acetylation and total histone H3, measured in control, untreated H358 lung cancer cells “C” or in H358 cells incubated 12 hours in the presence of 50 μM Spd-2a or Spd-3a. Each lane represents 60 μg cellular protein. (C) [3H]-thymidine incorporation (counts per minute) into DNA of H358 cells during a 6 hour pulse beginning at 42 hours post-start of treatment. Treatments were as follows (bars 1-6 left to right): (1) control: no treatment; (2) CPT alone: 5 nM 18 hours; (3) 3a alone: 50 μM; (4-6) 3a+CPT: CPT (5 nm, 18 hours)+3a at indicated dose. After 18 hours, CPT was removed and medium was replaced with fresh medium containing Spd-3a at the indicated dose. Each bar represents the average of triplicates. (D) 3-day 96-well viability assay of H358 cells grown in the presence of increasing amounts of Spd-2a or Spd-3a, with or without CPT (5 nM 18 hours). […] Each data point represents the average of three wells.
Date of exp: Jul. […] Date of exp: Sep.
(§3) Cells were plated in 96-well plates at 2000 cells per well and treated with the indicated doses of spd-3a. Cell viability was measured by the MTS assay 3 days later.
DLD-1 cells or H358 cells were plated in 96-well plates at 2000 cells per well and treated with the indicated doses of (A) spm-3 or (B) spm-2. (C) Cell viability was measured by the MTS assay 3 days later. Similar experiment using GT41 fibroblasts with spm2 or spm 3. Each assay point represents an average of duplicates. […]

[5] = In vivo toxicity in nude mice (tail vein injection); conditions: 100 μl of 5 mM, approximately 10 mg/kg, twice per week for 3 weeks, 4 mice
Experimental: They injected a second set of 4 mice with 100 μl of spd-3a (5 mM, approximately 10 mg/kg, or about 0.25 mM initial blood concentration), twice per week for 3 weeks.

[6] = 96-well MTS viability assay, GT41F fibroblasts; type: cell-based, human; conditions: human, GT41F skin fibroblasts, spd-3a 1 μM, single agent, read-out: viability retained
Experimental: as §3
DLD-1 cells or H358 cells were plated in 96-well plates at 2000 cells per well and treated with the indicated doses of (A) spm-3 or (B) spm-2. (C) Cell viability was measured by the MTS assay 3 days later. Similar experiment using GT41 fibroblasts with spm2 or spm 3. Each assay point represents an average of duplicates.

[7] = test system: endogenous HATs associated with solubilized chromatin; conditions: Parello et al. 1990; cited from earlier work

SMILES	effect as single agent on viability (MCF7 breast cancer cells)	difference between control and treated tumor curves (DLD-1 colon cancer)	effect as single agent on viability [1]	inhibition of DNA synthesis (H358 lung cancer cells [2]; 1, 10 or 50 μM, 12 hours)	suppression of DNA synthesis in combination with camptothecin (H358 lung cancer cells [2]; CPT 5 nM 18 hours + 3a, pulse at 42 hours)	histone H3K9 acetylation (Western) [3]	histone H3K9 acetylation (Western) ([3]; listed as spd-3a)	suppression of 3-day cell viability in combination with camptothecin (H358 lung cancer cells [4])	signs of toxicity [5]	viability at 3 days, 1 µM [6] [%]	inhibitory effect on endogenous HATs, compared with Spd-2a [7]
NCCC[C@](N)(C(=O)O)C(F)F [DFMO, α-difluoromethylornithine]	ineffective	not significant	ineffective								
CC(=O)NCCSCC(=O)NCCCNCCCCN [3a]				inhibit DNA synthesis	effective	nearly complete ablation	suppress histone acetylation	effective	no signs of distress or illness	~60	lower inhibitory effect than Spd-2a
